Legend:
shFbn1-VSMCs [1] = assay: DON incubation of Fbn1-silenced primary VSMCs: immunoblot, flow cytometry, qPCR; type: cell-based, murine
Experimental: (§1) Isolation and culture of primary mouse VSMCs were previously described. Tissue was digested with a solution of collagenase and elastase (Worthington Biochem) until a single-cell suspension was obtained. All experiments with primary VSMCs were performed during passages 2-7. Lentiviral transduction was performed in VSMCs over 5 h at a multiplicity of infection = 3. The medium was then replaced with fresh DMEM supplemented with 10% FBS and cells were cultured for five more days, treated with NR for five more days and serum-starved for 16h. The HEK-293T (CRL-1573) and Jurkat (Clone E6-1, TIB-152) cell lines, required for high-titer lentivirus production and lentivirus titration respectively, were purchased from ATCC. The experiments were performed during passages 5-10. All cells tested negative for Mycoplasma.
The GFPT2 and GFP coding sequence was obtained from Origene. Lentiviruses expressing shRNA targeting murine Fbnl, and control shRNA were purchased from Sigma-Aldrich. Pseudo-typed lentiviruses were produced by transient calcium phosphate transfection of HEK-293T cells and concentrated from culture supernatant by ultracentrifugation (2 hours at 128,000xg; Ultraclear Tubes; SW28 rotor and Optima L-100 XP Ultracentrifuge; Beckman). Viruses were suspended in cold sterile PBS and titrated by transduction of Jurkat cells for 48h. Transduction efficiency (GFP-expressing cells and Puromycin resistant-cells) and cell death (propidium iodide staining) were quantified by flow cytometry.
Aortas were extracted after perfusion with 5 ml saline solution, and the adventitia layer was discarded. Liquid nitrogen frozen tissue was homogenized using a cold-mortar and an automatic bead homogenizer (MagNA Lyzer, Roche). Total RNA was isolated with Trizol (Life Technologies). […] The amount of target mRNA in samples was estimated by the 2-CT relative quantification method, using B2M, YWHAZ and PP1A for normalization. Fold ratios were calculated relative to mRNA expression levels from controls. […]

Fbn1^C1039G/+ mice [2] = assay: DON by osmotic minipumps in Marfan mouse model: aortic ultrasound, blood pressure, histology, immunoblot, qPCR, RNA-seq; type: in vivo
Experimental: (§2) Marfan mouse model which harbor a Fbn1^C1039G/+ allele (JAX stock #012885). Wild-type littermates were used as controls for Marfan mice. DON dissolved in saline, (Sigma-Aldrich), at 5 ng* kg^-1 min^-1 and ISRIB (MedChemExpress) at 10mg* kg^-1 min^-1 were infused using subcutaneous osmotic minipumps (Model 2004, Alzet Corp). NR (Novalix) was administered intraperitoneally at 1000 mg/kg in saline every other day. Mice were housed at the pathogen-free animal facility of the CNIC and CBMSO following the animal care standards of the institution. Animal procedures were approved by the CNIC and CBMSO-UAM Ethics Committee and the Madrid regional authorities and conformed with EU Directive 2010/63EU and Recommendation 2007/526/EC regarding the protection of animals used for experimental and other scientific purposes, enforced in Spanish law under Real Decreto 1201/2005.
(§3) Arterial blood pressure (BP) was measured by the mouse-tail cuff method using the automated BP-2000 Blood Pressure Analysis System (Visitech Systems, Apex, NC, USA). Mice were trained for BP measurements every day for five consecutive days. After training period, BP was measured one day before treatment to determine the baseline BP values in each mouse cohort. BP measurements were recorded in mice located in a tail-cuff restrainer over a warmed surface (37 °C). Fifteen consecutive systolic and diastolic BP measurements were made, and the last 10 readings per mouse were recorded and averaged. For in vivo ultrasound images, the aortic diameter was monitored in isoflurane-anesthetized mice (2% isoflurane) by highfrequency ultrasound with a VEVO 2100 echography device (VisualSonics, Toronto, Canada) at 30-micron resolution. Maximal internal aortic diameters were measured at diastole using VEVO 2100 software, version 1.5.0.
Aortas were extracted after perfusion with 5 ml saline solution, and the adventitia layer was discarded. Liquid nitrogen frozen tissue was homogenized using a cold-mortar and an automatic bead homogenizer (MagNA Lyzer, Roche). Total RNA was isolated with Trizol (Life Technologies). Total RNA (1 µg) was first digested with DNAse and reverse-transcribed with Maxima First Strand cDNA Synthesis Kit (ThermoFisher). For analysis of mtDNA levels, total DNA from cells and tissues was extracted with the SurePrep kit (Fisher Scientific) or Trizol respectively, according to the manufacture's guidelines. qPCR reactions were performed in triplicate with SYBR master mix (Promega), according to the manufacturer's guidelines. To examine probe specificity, we conducted a post-amplification melting-curve analysis. For each reaction, only one melting-temperature (Tm) peak was produced. The amount of target mRNA in samples was estimated by the 2-CT relative quantification method, using B2M, YWHAZ and PP1A for normalization. Fold ratios were calculated relative to mRNA expression levels from controls.
Aortas were extracted after perfusion of cold saline solution and the adventitia layer was discarded. Frozen tissue was homogenized, and total RNA was isolated with Trizol ([…]). RNA from Libraries were prepared according to the instructions of the Kit "NEBNext Ultra Directional RNA Library Prep kit for Illumina" (New England Biolabs), following the protocol "Poly(A) mRNA Magnetic Isolation Module". The input yield of total RNA to start the protocol was >300 ng quantified by an Agilent 2100 Bioanalyzer using a RNA 6000 nano LabChip kit. The obtained libraries were validated and quantified by an Agilent 2100 Bioanalyzer using a DNA7500 LabChip kit and an equimolecular pool of libraries was titrated by quantitative PCR using the "Kapa-SYBR FAST qPCR kit forLightCycler480" (Kapa BioSystems) and a reference standard for quantification. After processing on the Illumina HiSeq 2500 instrument, FastQ files were generated containing nucleotide data and quality scores for each position. RNA-seq reads were mapped to the Mus musculus reference genome, GRCm38.p6, using Hisat2 v2.1.0 software. […]

Fbn1^+/+ mice = assay: Glucosamine in drinking water to fuel HBP, wild-type mice: aortic ultrasound, tail-cuff blood pressure, aortic histology; type: in vivo, mouse
Experimental: as §2, §3
After euthanization by CO2 inhalation, mice were perfused with saline. […] Elastic lamina breaks, defined as interruptions in the elastic fibers, were counted in the entire medial layer of three consecutive cross-sections per mouse, using 4-16 mice per experiment, and the mean number of breaks was calculated. […]

Fbn1^C1039G/+ mice [3] = assay: Glucosamine in drinking water to fuel HBP, Marfan mouse model: aortic ultrasound, aortic histology; type: in vivo
Experimental: (§4) Marfan mouse model which harbor a Fbn1^C1039G/+ allele (JAX stock #012885). Wild-type littermates were used as controls for Marfan mice. DON dissolved in saline, (Sigma-Aldrich), at 5 ng* kg^-1 min^-1 and ISRIB (MedChemExpress) at 10mg* kg^-1 min^-1 were infused using subcutaneous osmotic minipumps (Model 2004, Alzet Corp). NR (Novalix) was administered intraperitoneally at 1000 mg/kg in saline every other day. Mice were housed at the pathogen-free animal facility of the CNIC and CBMSO following the animal care standards of the institution. […]
as §3, with “Mice were trained for BP measurements every day for five consecutive days.” left out, “1.5.0. […]” for “1.5.0.”

Fbn1^C1039G/+ mice [4] = assay: ISRIB by osmotic minipumps in Marfan mouse model: aortic ultrasound, blood pressure; type: in vivo; conditions: 28 days, to normal levels
Experimental: as §4
as §3, with “Mice were trained for BP measurements every day for five consecutive days.” left out, “1.5.0. […]” for “1.5.0.”

shFbn1-VSMCs [5] = assay: ISRIB incubation of Fbn1-silenced primary VSMCs: qPCR; type: cell-based, murine; conditions: ISRIB incubation for 48h
Experimental: as §1, with “The HEK-293T (CRL-1573) and Jurkat (Clone E6-1, TIB-152) cell lines, required for high-titer lentivirus production and lentivirus titration respectively, were purchased from ATCC. The experiments were performed during passages 5-10. All cells tested negative for Mycoplasma.” left out
The GFPT2 and GFP coding sequence was obtained from Origene. […] Transduction efficiency (GFP-expressing cells and Puromycin resistant-cells) and cell death (propidium iodide staining) were quantified by flow cytometry.
Aortas were extracted after perfusion with 5 ml saline solution, and the adventitia layer was discarded. […] The amount of target mRNA in samples was estimated by the 2-CT relative quantification method, using B2M, YWHAZ and PP1A for normalization. Fold ratios were calculated relative to mRNA expression levels from controls.
ISR is a decisive cell response pathway that controls translation and bases a protective response and drive a transcriptional program to maintain and to contribute to organismal fitness. […] First, the inventors evaluated the ISRIB (an ISR-inhibitor) in MFS in vitro. […]

[6] = 24-weeks Fbn1^C1039G/+ mice, DON by osmotic minipumps, after 7 days of treatment
[7] = RNA-sequencing on aortas, same cohort as Fig. 3D

[N-]=[N+]=CC(=O)CC[C@H](N)C(=O)O [DON, 6-diazo-5-oxo-L-norleucine]
IRS signaling through Atf4, Atf6 protein and mRNA expression (shFbn1-VSMCs [1]; ShFbn1-VSMCs, DON for 48h): decreased
O-GlcNac (shFbn1-VSMCs [1]; shFbn1-VSMCs, DON 10nM, 48h, immunoblot and flow cytometry): efficiently reduced
mRNA levels of classical MFS genes such as Tgb1, Fgf2 growth factors, osteopontin (spp1) and colagen1 (Col1a1) (shFbn1-VSMCs [1]; shFbn1-VSMCs, DON incubation): decreased
Aortic dilation (Fbn1^C1039G/+ mice [2]; [6]): completely normalized
blood pressure (Fbn1^C1039G/+ mice [2]; [6]): completely normalized
O-GlcNac levels and WGA staining in aortic tissue (Fbn1^C1039G/+ mice [2]; DON treatment for 28 days): reduces
ISR (p-PERK, p-eIF2α, ATF4 staining and protein levels; Atf4, Atf6, Tgfb2 mRNA) in aortas (Fbn1^C1039G/+ mice [2]; MFS-mice, same cohort as Fig. 3D): inhibited
expression levels of genes related to ER-stress and ISR such as Atf4, Chop, Xbpl, Hsp90b1 and Atf4-dependent genes (Fbn1^C1039G/+ mice [2]; [7]): decreased
expression of conventional MFS-affected genes (TGFβ pathway and ECM-related proteins such as Tgfb3, Cnn2, Serpine1, Thbs1, Pdgfa, Acan, Vcan Sdc4) (Fbn1^C1039G/+ mice [2]; [7]): decreased
histologic features of aortic degeneration in MFS, such as medial thickening, elastic fiber fragmentation, GAG and PG deposition (Fbn1^C1039G/+ mice [2]; after 28 days of DON-treatment): restored
TGFB upstream regulator, activation Z-score (Fbn1^C1039G/+ mice [2]; ingenuity analysis of aortic RNA-seq, DON treated mice, p-value 2,5710^-11): -9,913

N[C@H]1C(O)O[C@H](CO)[C@@H](O)[C@@H]1O (stereo partly shown) [Glucosamine]
histological features of CMD (Fbn1^+/+ mice; elastin fiber fragmentation and Alcian blue staining after 28 days of treatment): reproduced
aortic diameter (Fbn1^+/+ mice; glucosamine in drinking water (5%), 28 days, effect after 7 days of treatment): significantly increased
systolic blood pressure (BP) (Fbn1^+/+ mice; glucosamine in drinking water (5%), after 7 days of treatment): decreased
aortic architecture such as elastin fiber fragmentation and amorphous matrix accumulation (Fbn1^C1039G/+ mice [3]; after 28 days of treatment): worsen
aortic diameter (Fbn1^C1039G/+ mice [3]; glucosamine in drinking water (5%), compared with control Fbn1^C1039G/+ mice): increased

O=C(COc1ccc(Cl)cc1)N[C@H]1CC[C@H](NC(=O)COc2ccc(Cl)cc2)CC1 [ISRIB]
aortic diameter (Fbn1^C1039G/+ mice [4]): decreases
blood pressure (Fbn1^C1039G/+ mice [4]): decreases
Atf4, Atf6 mRNA levels (shFbn1-VSMCs [5]): reduces
